Measured values: patent US9156845B2, “4-(substituted amino)-7H-pyrrolo[2,3-d] pyrimidines as LRRK2 inhibitors” (Pfizer Inc., priority 2012, dated 2015)

How the values were obtained:
[1] = molecular target: GST-tagged truncated LRRK2 (Homo sapiens (Human), UniProt Q5S007); assay: LRRK2 Lantha Screen kinase assay; format: biochemical; conditions: geometric mean of 2-5 determinations unless otherwise indicated (a: >=6 determinations; b: single determination); read-out: LRRK2 WT IC50
Method: LRRK2 kinase activity was measured using Lantha Screen technology from Invitrogen. GST-tagged truncated LRRK2 from Invitrogen (Cat # PV4874) was incubated with a fluorescein-labeled peptide substrate based upon ezrin/radixin/moesin (ERM), also known as LRRKtide (Invitrogen cat #PR8976A), in the presence of a dose response of compound. Upon completion, the assay was stopped and detected with a terbium labeled anti-phospho-ERM antibody (Invitrogen, cat #PR8975A). […] Aliquots (3.5 μL) of the 100% DMSO dose response were mixed with 46.5 μL water then 1 μL of this mixture was added to the 3 μL substrate mix in the 384-well plate. The kinase reaction was started with 3 μL of a working solution of LRRK2 enzyme at a concentration of 4 μg/mL. […] The reaction was allowed to progress at room temperature for two hours and then stopped with the addition of 7 μL of detection buffer (20 mM Tris pH 7.6, 0.01% NP-40, 0.02% NaN3, 6 mM EDTA with 2 nM terbium labeled anti-phospho-ERM).

[2] = molecular target: mutant G2019S LRRK2 (Homo sapiens (Human), UniProt Q5S007, G2019S); assay: LRRK2 Lantha Screen kinase assay, mutant enzyme; format: biochemical; conditions: geometric mean of 2-5 determinations unless otherwise indicated (a: >=6 determinations; b: single determination)
mutant G2019S LRRK2, sequence (Q5S007 970-2527 G2019S): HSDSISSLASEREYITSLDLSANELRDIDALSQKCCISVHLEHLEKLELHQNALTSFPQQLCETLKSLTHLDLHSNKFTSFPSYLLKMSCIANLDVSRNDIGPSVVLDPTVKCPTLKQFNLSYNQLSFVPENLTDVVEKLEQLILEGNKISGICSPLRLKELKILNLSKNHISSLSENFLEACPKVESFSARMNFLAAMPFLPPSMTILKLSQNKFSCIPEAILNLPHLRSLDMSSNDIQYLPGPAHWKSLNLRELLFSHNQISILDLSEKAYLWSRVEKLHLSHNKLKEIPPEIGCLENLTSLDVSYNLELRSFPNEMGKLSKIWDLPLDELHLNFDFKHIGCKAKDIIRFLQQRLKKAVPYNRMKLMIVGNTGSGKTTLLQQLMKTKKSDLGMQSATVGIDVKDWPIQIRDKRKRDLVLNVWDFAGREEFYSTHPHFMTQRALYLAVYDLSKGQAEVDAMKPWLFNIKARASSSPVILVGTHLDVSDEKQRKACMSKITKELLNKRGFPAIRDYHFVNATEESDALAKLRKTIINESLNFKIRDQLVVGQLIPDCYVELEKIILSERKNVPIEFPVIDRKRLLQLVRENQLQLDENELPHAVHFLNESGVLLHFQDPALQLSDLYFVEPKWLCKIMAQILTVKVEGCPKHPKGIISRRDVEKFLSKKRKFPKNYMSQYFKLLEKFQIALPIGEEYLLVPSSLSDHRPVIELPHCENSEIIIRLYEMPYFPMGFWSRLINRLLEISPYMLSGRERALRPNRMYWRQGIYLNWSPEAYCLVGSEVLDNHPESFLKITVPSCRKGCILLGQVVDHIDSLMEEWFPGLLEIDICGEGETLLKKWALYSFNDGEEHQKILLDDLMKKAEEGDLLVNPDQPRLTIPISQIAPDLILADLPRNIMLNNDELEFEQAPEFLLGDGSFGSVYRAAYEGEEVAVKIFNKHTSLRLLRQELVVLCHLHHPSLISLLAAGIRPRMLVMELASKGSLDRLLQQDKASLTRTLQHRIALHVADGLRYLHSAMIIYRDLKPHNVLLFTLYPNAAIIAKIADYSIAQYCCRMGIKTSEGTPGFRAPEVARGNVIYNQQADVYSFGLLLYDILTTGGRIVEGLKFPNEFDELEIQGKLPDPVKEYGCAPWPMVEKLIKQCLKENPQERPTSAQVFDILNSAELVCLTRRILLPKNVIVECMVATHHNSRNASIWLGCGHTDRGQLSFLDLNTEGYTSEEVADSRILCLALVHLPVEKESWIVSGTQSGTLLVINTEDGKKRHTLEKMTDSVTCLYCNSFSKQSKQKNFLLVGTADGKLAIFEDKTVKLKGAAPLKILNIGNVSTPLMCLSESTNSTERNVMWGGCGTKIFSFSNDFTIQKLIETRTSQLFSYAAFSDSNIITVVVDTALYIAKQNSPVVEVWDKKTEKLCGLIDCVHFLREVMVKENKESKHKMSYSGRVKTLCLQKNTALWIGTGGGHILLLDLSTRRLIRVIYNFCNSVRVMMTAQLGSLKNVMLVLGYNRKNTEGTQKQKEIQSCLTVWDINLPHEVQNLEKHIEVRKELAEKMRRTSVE

GST-tagged truncated LRRK2, sequence (Q5S007 970-2527): as the sequence (Q5S007 970-2527 G2019S) above, with S1050G counted along it

Row | Compound | IC50 [1] [nM] | IC50 [2] [nM]
1 | N#Cc1cccc(-c2c[nH]c3ncnc(N4CCOC(c5cc[nH]n5)C4)c23)c1 (stereo not shown) [Example 36, 3-{4-[2-(1H-pyrazol-3-yl)morpholin-4-yl]-7H-pyrrolo[2,3-d]pyrimidin-5-yl}benzonitrile] | 43 | 238
2 | c1cc(-c2ncon2)cc(-c2c[nH]c3ncnc(N4CCOCC4)c23)c1 [Example 201, 4-(Morpholin-4-yl)-5-[3-(1,2,4-oxadiazol-3-yl)phenyl]-7H-pyrrolo[2,3-d]pyrimidine] | 129 | 475
3 | Cc1ccc(F)cc1-c1c[nH]c2ncnc(N3CCOCC3)c12 [Example 96, 5-(5-fluoro-2-methylphenyl)-4-(morpholin-4-yl)-7H-pyrrolo[2,3-d]pyrimidine] | 91 | 223
4 | C[C@H]1CCCN(c2ncnc3[nH]cc(-c4cnc5cc[nH]c5c4)c23)C1 [Example 55, 4-[(3S)-3-methylpiperidin-1-yl]-5-(1H-pyrrolo[3,2-b]pyridin-6-yl)-7H-pyrrolo[2,3-d]pyrimidine] | 53 | 50
5 | Cc1nc(CC2CN(c3ncnc4[nH]cc(-c5cccc(C#N)c5)c34)CCO2)no1 (stereo not shown) [Example 145, 3-(4-{2-[(5-methyl-1,2,4-oxadiazol-3-yl)methyl]morpholin-4-yl}-7H-pyrrolo[2,3-d]pyrimidin-5-yl)benzonitrile] | 55 | 155
6 | N#Cc1cccc(-c2c[nH]c3ncnc(N4CCC(F)(F)C4)c23)c1 [Example 136, 3-[4-(3,3-difluoropyrrolidin-1-yl)-7H-pyrrolo[2,3-d]pyrimidin-5-yl]benzonitrile] | 74 | 194
7 | N#Cc1cccc(-c2c[nH]c3ncnc(N4CCCC(c5cc[nH]n5)C4)c23)c1 (stereo not shown) [Example 37, 3-{4-[3-(1H-pyrazol-3-yl)piperidin-1-yl]-7H-pyrrolo[2,3-d]pyrimidin-5-yl}benzonitrile] | 84 | 200
8 | N#Cc1cccc(-c2c[nH]c3ncnc(N4CCCC(c5ncc[nH]5)C4)c23)c1 (stereo not shown) [Example 38, 3-{4-[3-(1H-imidazol-2-yl)piperidin-1-yl]-7H-pyrrolo[2,3-d]pyrimidin-5-yl}benzonitrile] | 53 | 331
9 | N#Cc1cccc(-c2c[nH]c3ncnc(NCCN4CCOCC4)c23)c1 [Example 42, 3-(4-{[2-(morpholin-4-yl)ethyl]amino}-7H-pyrrolo[2,3-d]pyrimidin-5-yl)benzonitrile] | 89 | 487
10 | N#Cc1cccc(-c2c[nH]c3ncnc(N4CCC(c5cc[nH]n5)CC4)c23)c1 [Example 34, 3-{4-[4-(1H-pyrazol-3-yl)piperidin-1-yl]-7H-pyrrolo[2,3-d]pyrimidin-5-yl}benzonitrile] | 69 | 136
11 | OC1CCCN(c2ncnc3[nH]cc(-c4cccc(F)c4)c23)C1 (stereo not shown) [Example 156, 1-[5-(3-fluorophenyl)-7H-pyrrolo[2,3-d]pyrimidin-4-yl]piperidin-3-ol] | 57 | 86
12 | COC1CCCN(c2ncnc3[nH]cc(-c4cccc(C#N)c4)c23)C1 (stereo not shown) [Example 29, 3-[4-(3-methoxypiperidin-1-yl)-7H-pyrrolo[2,3-d]pyrimidin-5-yl]benzonitrile] | 79 | 154
13 | COc1ccc(F)cc1-c1c[nH]c2ncnc(N3CCOC(c4noc(C)n4)C3)c12 (stereo not shown) [Example 157, 5-(5-fluoro-2-methoxyphenyl)-4-[2-(5-methyl-1,2,4-oxadiazol-3-yl)morpholin-4-yl]-7H-pyrrolo[2,3-d]pyrimidine] | 44 | 46
14 | N#Cc1ccc(F)c(-c2c[nH]c3ncnc(N4CCOCC4)c23)c1 [Example 80, 4-fluoro-3-[4-(morpholin-4-yl)-7H-pyrrolo[2,3-d]pyrimidin-5-yl]benzonitrile] | 49 | 393
15 | CC1(C)CCCN(c2ncnc3[nH]cc(-c4cccc(C#N)c4)c23)C1 [Example 11, 3-[4-(3,3-dimethylpiperidin-1-yl)-7H-pyrrolo[2,3-d]pyrimidin-5-yl]benzonitrile] | 90 | 325
16 | N#CC1CCCN(c2ncnc3[nH]cc(-c4cccc(CO)c4)c23)C1 (stereo not shown) [Example 20, 1-{5-[3-(hydroxymethyl)phenyl]-7H-pyrrolo[2,3-d]pyrimidin-4-yl}piperidine-3-carbonitrile] | 56 | 31
17 | C[C@H]1COCCN1c1ncnc2[nH]cc(-c3cccc(C#N)c3)c12 [Example 153, 3-{4-[(3S)-3-methylmorpholin-4-yl]-7H-pyrrolo[2,3-d]pyrimidin-5-yl}benzonitrile] | 44 | 165
18 | N#Cc1cccc(-c2c[nH]c3ncnc(N4CCOC(c5nccs5)C4)c23)c1 (stereo not shown) [Example 131, 3-{4-[2-(1,3-thiazol-2-yl)morpholin-4-yl]-7H-pyrrolo[2,3-d]pyrimidin-5-yl}benzonitrile] | 45 | 181
19 | N#Cc1cc(Cl)cc(-c2c[nH]c3ncnc(N4CCOCC4)c23)c1 [Example 114, 3-chloro-5-[4-(morpholin-4-yl)-7H-pyrrolo[2,3-d]pyrimidin-5-yl]benzonitrile] | 77 | 406

More lines, in order of falling IC50 [1], values ahead:

Row | IC50 [1] [nM] | IC50 [2] [nM] | Compound
20 | 42 | 230 | N#Cc1cccc(-c2c[nH]c3ncnc(N4CCC(c5ncc[nH]5)CC4)c23)c1 [Example 26, 3-{4-[4-(1H-imidazol-2-yl)piperidin-1-yl]-7H-pyrrolo[2,3-d]pyrimidin-5-yl}benzonitrile]
21 | 40 | 201 | CN1CCC2(CC1)CN(c1ncnc3[nH]cc(-c4cccc(C#N)c4)c13)CCO2 [Example 28, 3-[4-(9-methyl-1-oxa-4,9-diazaspiro[5.5]undec-4-yl)-7H-pyrrolo[2,3-d]pyrimidin-5-yl]benzonitrile]
22 | 39 | 158 | CC1CCN(c2ncnc3[nH]cc(-c4cccc(C#N)c4)c23)C1 (single isomer, unassigned) [Example 77]
23 | 38 | 29 | OCC1CCN(c2ncnc3[nH]cc(-c4ccccc4)c23)CC1 [Example 19, [1-(5-phenyl-7H-pyrrolo[2,3-d]pyrimidin-4-yl)piperidin-4-yl]methanol]
24 | 36 | 50 | Cn1cc(-c2c[nH]c3ncnc(N4CCC(F)CC4)c23)cn1 [Example 81, 4-(4-fluoropiperidin-1-yl)-5-(1-methyl-1H-pyrazol-4-yl)-7H-pyrrolo[2,3-d]pyrimidine]
25 | 33 | 33 | C[C@H]1CCCN(c2ncnc3[nH]cc(-c4ccc5c(c4)CNC5=O)c23)C1 [Example 50, 5-{4-[(3S)-3-methylpiperidin-1-yl]-7H-pyrrolo[2,3-d]pyrimidin-5-yl}-2,3-dihydro-1H-isoindol-1-one]
26 | 32 | 75 | OCc1cccc(-c2c[nH]c3ncnc(N4CCOCC4)c23)c1F [Example 89, {2-fluoro-3-[4-(morpholin-4-yl)-7H-pyrrolo[2,3-d]pyrimidin-5-yl]phenyl}methanol]
27 | 31 | 27 | Cn1cc(-c2c[nH]c3ncnc(N4CCCC(F)C4)c23)cn1 (stereo not shown) [Example 123, 4-(3-fluoropiperidin-1-yl)-5-(1-methyl-1H-pyrazol-4-yl)-7H-pyrrolo[2,3-d]pyrimidine]
28 | 30 | 365 | Cc1nc(N2CCOCC2)c2c(-c3cccc(C#N)c3F)c[nH]c2n1 [Example 154, 2-fluoro-3-[2-methyl-4-(morpholin-4-yl)-7H-pyrrolo[2,3-d]pyrimidin-5-yl]benzonitrile]
29 | 27.2 | 186 | N#Cc1cccc(-c2c[nH]c3ncnc(N4CCO[C@H]5CCC[C@H]54)c23)c1 (relative stereo) [Example 208, rel-3-{4-[(4aR,7aS)-hexahydrocyclopenta[b][1,4]oxazin-4(4aH)-yl]-7H-pyrrolo[2,3-d]pyrimidin-5-yl}benzonitrile]
30 | 27 | 51 | c1ccc2c(-c3c[nH]c4ncnc(N5CCOCC5)c34)cncc2c1 [Example 104, 4-[4-(morpholin-4-yl)-7H-pyrrolo[2,3-d]pyrimidin-5-yl]isoquinoline]
31 | 25 | 46 | COc1ccc(C#N)cc1-c1c[nH]c2ncnc(N3CCCC(C)C3)c12 (stereo not shown) [Example 23, 4-methoxy-3-[4-(3-methylpiperidin-1-yl)-7H-pyrrolo[2,3-d]pyrimidin-5-yl]benzonitrile]
32 | 22 | 19 | COc1ccc(Cl)cc1-c1c[nH]c2ncnc(N(C)C)c12 [Example 25, 5-(5-chloro-2-methoxyphenyl)-N,N-dimethyl-7H-pyrrolo[2,3-d]pyrimidin-4-amine]
33 | 21 | 51 | COc1ccc(C#N)cc1-c1c[nH]c2ncnc(N3CCC[C@H](C)C3)c12 [Example 66, 4-methoxy-3-{4-[(3S)-3-methylpiperidin-1-yl]-7H-pyrrolo[2,3-d]pyrimidin-5-yl}benzonitrile]
34 | 15.8 | 60.5 | c1nc(N2CCOCC2)c2c(-c3cnc4sccn34)c[nH]c2n1 [Example 205, 5-(imidazo[2,1-b][1,3]thiazol-5-yl)-4-(morpholin-4-yl)-7H-pyrrolo[2,3-d]pyrimidine]
35 | 14 | 64 | Cc1cc(C#N)cc(-c2c[nH]c3ncnc(N4CCOCC4)c23)c1 [Example 111, 3-methyl-5-[4-(morpholin-4-yl)-7H-pyrrolo[2,3-d]pyrimidin-5-yl]benzonitrile]
36 | 9 | 26 | N#Cc1cccc(-c2c[nH]c3ncnc(N4CCOCC4)c23)n1 [Example 3, 6-[4-(Morpholin-4-yl)-7H-pyrrolo[2,3-d]pyrimidin-5-yl]pyridine-2-carbonitrile]
37 | 7 | 37 | C[C@H]1CN(c2ncnc3[nH]cc(-c4cccc(C#N)c4)c23)CCO1 [Example 6, 3-{4-[(2S)-2-Methylmorpholin-4-yl]-7H-pyrrolo[2,3-d]pyrimidin-5-yl}benzonitrile]
38 | 5 | 15 | CN(C)c1ncnc2[nH]cc(-c3cccc(C#N)c3)c12 [Example 5, 3-[4-(Dimethylamino)-7H-pyrrolo[2,3-d]pyrimidin-5-yl]benzonitrile]
